Experimental data taken from patent US8415469B2, “Compounds and methods for kinase modulation, and indications therefor” (Plexxikon Inc., priority 2005, dated 2013).

Legend:
Format in all cases: biochemical
[1] = target: T1, B-Raf V600E (Homo sapiens, UniProt P15056, V600E); experiment: AlphaScreen kinase assay, B-Raf V600E; settings: read-out: IC50, activity toward kinase B-Raf V600E
T1 construct: P4254. pFastBacBD-CDC37 BRAF D437-K722-X, V600E; His6 with pFastBac HT leader (TEV site) (N); made in house; host or cells: Sf9 (baculovirus; chaperone CDC37 co-expressed)

[2] = target: T2, Ret (Homo sapiens, UniProt P07949); experiment: AlphaScreen kinase assay, Ret; settings: read-out: IC50, activity toward kinase Ret
T2 construct: P1378.pET-SF BI-PTP RET H661-R1012 HIS; made in house
T2 sequence (P07949 with tags, fused parts or gaps): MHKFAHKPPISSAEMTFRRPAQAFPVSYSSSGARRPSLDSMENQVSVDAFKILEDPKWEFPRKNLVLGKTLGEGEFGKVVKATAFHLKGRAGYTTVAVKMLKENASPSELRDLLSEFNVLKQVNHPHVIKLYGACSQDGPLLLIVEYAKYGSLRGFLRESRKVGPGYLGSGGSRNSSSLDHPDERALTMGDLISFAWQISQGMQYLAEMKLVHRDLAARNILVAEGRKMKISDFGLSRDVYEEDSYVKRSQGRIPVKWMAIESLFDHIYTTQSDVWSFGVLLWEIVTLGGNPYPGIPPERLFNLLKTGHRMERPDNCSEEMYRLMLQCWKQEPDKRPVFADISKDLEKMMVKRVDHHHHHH

[3] = target: T3, FGFR1 (Homo sapiens, UniProt P11362, C488A/C584S); experiment: AlphaScreen kinase assay, FGFR1; settings: read-out: IC50, activity toward kinase FGFR
T3 construct: P1351.pET N6 BI-PTP FGFR A458-E765-X C488A, C584S; made in house; host or cells: E. coli (PTP1B co-expressed)

[4] = target: T4, Met (Homo sapiens, UniProt P08581); experiment: AlphaScreen kinase assay, Met; settings: read-out: IC50, activity toward kinase Met
T4 construct: P1818.pETN6 BI-PTP MET G1056-G1364-X WT; His6 (N); made in house; host or cells: E. coli (PTP1B co-expressed)
From the text: AlphaScreen assay was used to screen additional kinases. The assay is similarly dependent on the phosphorylation of a peptide substrate. In this assay, an antibody that recognizes phosphorylated substrate is bound to an acceptor bead. The peptide substrate is attached to biotin, which binds to a donor head that contains streptavidin. Thus phosphorylated substrate is bound by antibody and streptavidin, bringing the donor and acceptor heads into close proximity when kinase is not inhibited. The donor produces singlet oxygen which results in emission from the acceptor when they are in close proximity. Conversely, when kinase is inhibited, the donor and acceptor beads are not associated and the emission from the acceptor is reduced.
AlphaScreen assays were done using compounds dissolved in DMSO to a concentration of 20 mM. The compounds were diluted accordingly to the desired final concentrations in each sample well, using 1:3 serial dilution for a total of 8 concentration points.

[5] = target: T5, Jnk2 (Homo sapiens, UniProt P45984); experiment: AlphaScreen kinase assay, Jnk2; settings: read-out: IC50, activity toward kinase Jnk2
T5 construct: purchased Roche Protein Expression Group (Indianapolis, IN)
Summary of the method: (§1)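 Uses phospho-specific antibody on acceptor beads plus streptavidin donor beads capturing biotinylated peptide substrate; singlet oxygen from donor excites nearby acceptor. Inhibitors tested in 8-point, 1:3 titrations starting from 20 mM DMSO solutions.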

[6] = target: T6, Jnk3 (Homo sapiens, UniProt P53779); experiment: AlphaScreen kinase assay, Jnk3; settings: read-out: IC50, activity toward kinase Jnk3
T6 construct: purchased Upstate Biotechnology

[7] = target: T7, c-Raf-1 (Homo sapiens, UniProt P04049); experiment: AlphaScreen kinase assay, c-Raf-1; settings: read-out: IC50, activity toward kinase c-Raf-1
T7 construct: purchased Upstate Biotechnology

[8] = target: T8, B-Raf (Homo sapiens, UniProt P15056); experiment: AlphaScreen kinase assay, B-Raf; settings: read-out: IC50, activity toward kinase B-Raf
T8 construct: purchased Upstate Biotechnology

[9] = target: T9, Jnk1 (Homo sapiens, UniProt P45983); experiment: AlphaScreen kinase assay, Jnk1; settings: read-out: IC50, activity toward kinase Jnk1
T9 construct: purchased Upstate Biotechnology

[10] = target: T10, Flt1 (Homo sapiens, UniProt P17948); experiment: AlphaScreen kinase assay, Flt1; settings: read-out: IC50, activity toward kinase Flt1
T10 construct: P1826.pETN6 BI-PTP FLT1 M799-D1165-X WT; His6 (N); made in house; host or cells: E. coli (PTP1B co-expressed)
T10 sequence (P17948 with tags, fused parts or gaps): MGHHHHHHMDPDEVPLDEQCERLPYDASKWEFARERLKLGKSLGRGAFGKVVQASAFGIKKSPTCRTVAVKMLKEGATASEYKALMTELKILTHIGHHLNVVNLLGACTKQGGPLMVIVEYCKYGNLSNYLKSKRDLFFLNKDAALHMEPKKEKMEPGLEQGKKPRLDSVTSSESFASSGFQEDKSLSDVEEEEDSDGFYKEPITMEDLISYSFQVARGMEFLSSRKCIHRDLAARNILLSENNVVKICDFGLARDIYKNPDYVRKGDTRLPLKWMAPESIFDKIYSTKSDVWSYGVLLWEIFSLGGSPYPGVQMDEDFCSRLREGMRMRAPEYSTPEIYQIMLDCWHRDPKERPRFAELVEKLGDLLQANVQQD

[11] = target: T11, Fms (Homo sapiens, UniProt P07333); experiment: AlphaScreen kinase assay, Fms; settings: read-out: IC50, activity toward kinase Fms
T11 construct: purchased Upstate Biotechnology

[12] = target: T12, Kdr (Homo sapiens, UniProt P35968); experiment: Z'-Lyte FRET kinase assay (Invitrogen), Kdr; settings: read-out: IC50, activity toward kinase Kdr
T12 construct: purchased Invitrogen (assay run by Invitrogen)

[13] = target: T13, Kit (Homo sapiens, UniProt P10721); experiment: AlphaScreen kinase assay, Kit; settings: read-out: IC50, activity toward kinase Kit
T13 construct: P1332.N6 BI PTP KIT M552-K948-X COD; His6 (N); made in house; host or cells: E. coli (PTP1B co-expressed)

[14] = target: MAP4K4 (Homo sapiens, UniProt O95819); experiment: AlphaScreen kinase assay, MAP4K4; settings: read-out: IC50, activity toward kinase MAP4K4
[15] = target: T14, Pyk2 (Homo sapiens, UniProt Q14289); experiment: AlphaScreen kinase assay, Pyk2; settings: read-out: IC50, activity toward kinase Pyk2
T14 construct: purchased Upstate Biotechnology

[16] = target: T15, Stk6 (Homo sapiens, UniProt O14965); experiment: Z'-Lyte FRET kinase assay (Invitrogen), Stk6; settings: read-out: IC50, activity toward kinase Stk6
T15 construct: purchased Invitrogen (Carlsbad, Calif.), screening service
T15 sequence (O14965 1-403): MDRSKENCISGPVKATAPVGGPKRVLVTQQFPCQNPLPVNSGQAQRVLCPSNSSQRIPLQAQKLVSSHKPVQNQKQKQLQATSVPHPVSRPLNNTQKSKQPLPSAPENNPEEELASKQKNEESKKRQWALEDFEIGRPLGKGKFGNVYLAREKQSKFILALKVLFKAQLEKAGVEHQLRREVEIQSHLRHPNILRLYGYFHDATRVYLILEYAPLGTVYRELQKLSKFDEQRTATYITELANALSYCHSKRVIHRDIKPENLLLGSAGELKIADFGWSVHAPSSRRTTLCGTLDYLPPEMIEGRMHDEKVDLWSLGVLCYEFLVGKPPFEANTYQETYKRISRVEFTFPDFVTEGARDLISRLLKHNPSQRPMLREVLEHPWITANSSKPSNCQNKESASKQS

[17] = target: T16, Fak (Homo sapiens, UniProt Q05397); experiment: AlphaScreen kinase assay, Fak; settings: read-out: IC50, activity toward kinase Fak
T16 construct: P1358.pFastBacHtb FAK S411-Q686-X; His6 with pFastBacHTb leader (TEV site) (N); made in house; host or cells: Sf9 (baculovirus)

[18] = target: T17, Src (Homo sapiens, UniProt P12931); experiment: AlphaScreen kinase assay, Src; settings: read-out: IC50, activity toward kinase Src
T17 construct: P1144. pET-N6 BI-PTP SRC V86-L536-X; made in house

[19] = target: T18, Zap70 (Homo sapiens, UniProt P43403); experiment: AlphaScreen kinase assay, Zap70; settings: read-out: IC50, activity toward kinase Zap70
T18 construct: P1868.pFastBac1 ZAP70 D327-G606 HIS, WT; His7 (HHHHHHH) (C); made in house
T18 sequence (P43403 with tags, fused parts or gaps): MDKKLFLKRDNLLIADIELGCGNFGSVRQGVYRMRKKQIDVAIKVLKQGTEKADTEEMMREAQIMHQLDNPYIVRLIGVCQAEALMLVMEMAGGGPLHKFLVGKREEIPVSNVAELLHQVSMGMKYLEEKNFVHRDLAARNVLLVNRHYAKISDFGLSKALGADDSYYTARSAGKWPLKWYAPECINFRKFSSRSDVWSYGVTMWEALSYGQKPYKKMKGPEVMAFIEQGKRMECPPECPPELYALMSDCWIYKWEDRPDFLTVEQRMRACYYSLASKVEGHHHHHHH
Summary of the method: as §1

T8 sequence (P15056 whole entry): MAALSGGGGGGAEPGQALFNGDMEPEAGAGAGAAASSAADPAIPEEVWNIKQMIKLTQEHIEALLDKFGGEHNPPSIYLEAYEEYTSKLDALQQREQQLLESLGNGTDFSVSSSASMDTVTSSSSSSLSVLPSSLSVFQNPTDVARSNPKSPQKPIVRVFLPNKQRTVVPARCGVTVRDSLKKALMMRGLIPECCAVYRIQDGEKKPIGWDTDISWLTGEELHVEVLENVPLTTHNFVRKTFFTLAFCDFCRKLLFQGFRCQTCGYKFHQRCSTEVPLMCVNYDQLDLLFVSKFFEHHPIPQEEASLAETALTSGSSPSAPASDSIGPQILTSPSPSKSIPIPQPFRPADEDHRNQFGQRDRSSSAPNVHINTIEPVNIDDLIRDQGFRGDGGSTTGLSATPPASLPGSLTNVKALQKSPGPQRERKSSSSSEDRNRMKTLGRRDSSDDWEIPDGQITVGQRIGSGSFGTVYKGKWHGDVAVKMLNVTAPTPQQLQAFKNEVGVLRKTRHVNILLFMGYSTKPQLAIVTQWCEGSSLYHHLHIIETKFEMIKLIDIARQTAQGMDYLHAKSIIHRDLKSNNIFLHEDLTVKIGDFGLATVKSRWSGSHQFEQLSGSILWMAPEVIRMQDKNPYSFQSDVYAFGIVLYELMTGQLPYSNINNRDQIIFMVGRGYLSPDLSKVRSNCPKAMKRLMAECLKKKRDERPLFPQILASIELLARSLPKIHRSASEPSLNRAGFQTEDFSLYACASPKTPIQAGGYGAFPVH
T11 sequence (P07333 20-972): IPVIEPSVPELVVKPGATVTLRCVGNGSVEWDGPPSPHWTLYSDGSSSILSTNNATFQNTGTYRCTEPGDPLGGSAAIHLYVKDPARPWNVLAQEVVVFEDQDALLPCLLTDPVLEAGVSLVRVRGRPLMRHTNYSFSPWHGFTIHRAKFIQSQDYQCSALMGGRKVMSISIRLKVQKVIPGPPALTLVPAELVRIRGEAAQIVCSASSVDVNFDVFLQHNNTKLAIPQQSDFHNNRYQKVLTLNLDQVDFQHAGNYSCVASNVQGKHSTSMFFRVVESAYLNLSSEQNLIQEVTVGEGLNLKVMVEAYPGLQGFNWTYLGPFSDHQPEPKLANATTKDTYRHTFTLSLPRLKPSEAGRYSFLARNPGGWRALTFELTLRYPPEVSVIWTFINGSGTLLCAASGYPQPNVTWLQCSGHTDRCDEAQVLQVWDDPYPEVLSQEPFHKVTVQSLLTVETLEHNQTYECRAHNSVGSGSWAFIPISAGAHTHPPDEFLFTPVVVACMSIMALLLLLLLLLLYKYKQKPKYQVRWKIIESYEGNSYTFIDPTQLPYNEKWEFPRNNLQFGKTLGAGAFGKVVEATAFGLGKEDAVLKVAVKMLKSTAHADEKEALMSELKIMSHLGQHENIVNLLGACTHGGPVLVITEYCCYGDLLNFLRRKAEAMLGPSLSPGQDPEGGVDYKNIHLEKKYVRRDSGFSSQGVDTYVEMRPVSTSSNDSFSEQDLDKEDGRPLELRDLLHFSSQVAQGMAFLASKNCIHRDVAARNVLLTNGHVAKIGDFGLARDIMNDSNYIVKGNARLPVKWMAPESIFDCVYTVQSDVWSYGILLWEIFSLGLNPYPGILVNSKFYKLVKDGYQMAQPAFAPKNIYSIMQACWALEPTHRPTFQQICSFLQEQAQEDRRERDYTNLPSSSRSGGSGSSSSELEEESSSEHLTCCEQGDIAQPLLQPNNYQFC
T13 sequence (P10721 with tags, fused parts or gaps): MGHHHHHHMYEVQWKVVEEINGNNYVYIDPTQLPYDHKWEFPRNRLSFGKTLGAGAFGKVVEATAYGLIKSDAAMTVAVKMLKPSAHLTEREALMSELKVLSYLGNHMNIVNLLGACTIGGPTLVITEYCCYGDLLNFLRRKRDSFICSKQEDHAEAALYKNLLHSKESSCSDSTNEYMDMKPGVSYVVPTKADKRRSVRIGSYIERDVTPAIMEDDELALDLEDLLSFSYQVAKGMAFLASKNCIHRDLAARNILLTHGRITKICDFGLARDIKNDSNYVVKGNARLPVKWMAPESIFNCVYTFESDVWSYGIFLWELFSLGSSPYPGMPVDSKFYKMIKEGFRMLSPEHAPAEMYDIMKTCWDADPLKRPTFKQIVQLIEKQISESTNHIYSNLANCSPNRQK
T5 sequence (P45984 whole entry): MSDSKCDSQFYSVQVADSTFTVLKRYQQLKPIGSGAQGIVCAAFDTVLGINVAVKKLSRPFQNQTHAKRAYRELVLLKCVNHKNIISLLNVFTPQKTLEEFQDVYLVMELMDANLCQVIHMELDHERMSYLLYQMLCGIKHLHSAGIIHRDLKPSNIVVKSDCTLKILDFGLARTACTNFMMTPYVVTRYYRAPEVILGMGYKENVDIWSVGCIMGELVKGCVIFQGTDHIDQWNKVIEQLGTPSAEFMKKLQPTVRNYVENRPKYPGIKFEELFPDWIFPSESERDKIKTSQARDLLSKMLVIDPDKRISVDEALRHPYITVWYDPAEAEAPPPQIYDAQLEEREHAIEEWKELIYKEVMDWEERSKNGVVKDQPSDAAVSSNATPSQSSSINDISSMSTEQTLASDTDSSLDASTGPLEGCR
T7 sequence (P04049 whole entry): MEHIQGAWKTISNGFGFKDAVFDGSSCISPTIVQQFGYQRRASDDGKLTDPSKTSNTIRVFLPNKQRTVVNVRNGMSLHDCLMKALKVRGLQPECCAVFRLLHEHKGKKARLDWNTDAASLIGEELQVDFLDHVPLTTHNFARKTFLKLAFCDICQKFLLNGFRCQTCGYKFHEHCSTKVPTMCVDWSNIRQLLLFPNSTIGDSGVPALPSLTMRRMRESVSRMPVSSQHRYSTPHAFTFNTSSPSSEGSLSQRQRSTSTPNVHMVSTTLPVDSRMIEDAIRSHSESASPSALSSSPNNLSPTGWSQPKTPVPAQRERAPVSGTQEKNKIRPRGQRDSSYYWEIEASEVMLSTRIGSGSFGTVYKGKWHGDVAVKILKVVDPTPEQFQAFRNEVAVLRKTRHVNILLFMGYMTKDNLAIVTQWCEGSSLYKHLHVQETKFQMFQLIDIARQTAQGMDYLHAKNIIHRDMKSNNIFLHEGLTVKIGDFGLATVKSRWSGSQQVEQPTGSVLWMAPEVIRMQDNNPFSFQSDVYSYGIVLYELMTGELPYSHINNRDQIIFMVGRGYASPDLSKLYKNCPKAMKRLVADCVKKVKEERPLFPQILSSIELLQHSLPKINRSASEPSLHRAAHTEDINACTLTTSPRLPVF
T9 sequence (P45983 whole entry): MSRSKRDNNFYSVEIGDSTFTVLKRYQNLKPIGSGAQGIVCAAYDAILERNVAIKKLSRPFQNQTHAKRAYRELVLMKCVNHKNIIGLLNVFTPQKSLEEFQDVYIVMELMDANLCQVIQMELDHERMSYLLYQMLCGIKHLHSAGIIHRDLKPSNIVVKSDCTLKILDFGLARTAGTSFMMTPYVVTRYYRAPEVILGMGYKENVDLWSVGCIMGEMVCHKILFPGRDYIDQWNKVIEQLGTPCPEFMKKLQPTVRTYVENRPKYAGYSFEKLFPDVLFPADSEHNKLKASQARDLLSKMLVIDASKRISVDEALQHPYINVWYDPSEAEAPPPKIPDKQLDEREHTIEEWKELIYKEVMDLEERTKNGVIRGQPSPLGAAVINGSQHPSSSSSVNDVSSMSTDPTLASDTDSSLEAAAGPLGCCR
T1 sequence (P15056 with tags, fused parts or gaps V600E): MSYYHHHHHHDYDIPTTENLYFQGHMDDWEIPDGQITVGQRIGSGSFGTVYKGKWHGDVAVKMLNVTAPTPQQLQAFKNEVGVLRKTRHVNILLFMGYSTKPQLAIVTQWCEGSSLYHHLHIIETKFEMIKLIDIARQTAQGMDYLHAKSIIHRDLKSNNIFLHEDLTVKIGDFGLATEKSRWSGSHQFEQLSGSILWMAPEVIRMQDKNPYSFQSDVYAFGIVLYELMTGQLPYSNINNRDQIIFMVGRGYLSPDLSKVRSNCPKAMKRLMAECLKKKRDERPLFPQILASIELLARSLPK
T17 sequence (P12931 with tags, fused parts or gaps): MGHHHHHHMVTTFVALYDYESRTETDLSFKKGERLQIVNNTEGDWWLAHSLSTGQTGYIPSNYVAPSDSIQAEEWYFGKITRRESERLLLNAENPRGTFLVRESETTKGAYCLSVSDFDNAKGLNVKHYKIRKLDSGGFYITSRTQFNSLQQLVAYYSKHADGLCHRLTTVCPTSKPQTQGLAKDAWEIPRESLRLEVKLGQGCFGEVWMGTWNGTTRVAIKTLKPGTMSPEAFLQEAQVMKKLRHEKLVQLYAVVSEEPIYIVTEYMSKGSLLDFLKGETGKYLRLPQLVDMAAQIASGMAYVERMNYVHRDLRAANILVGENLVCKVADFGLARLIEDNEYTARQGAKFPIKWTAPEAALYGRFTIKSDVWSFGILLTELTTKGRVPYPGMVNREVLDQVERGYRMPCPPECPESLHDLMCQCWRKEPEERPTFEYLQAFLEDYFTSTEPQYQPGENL
T4 sequence (P08581 with tags, fused parts or gaps): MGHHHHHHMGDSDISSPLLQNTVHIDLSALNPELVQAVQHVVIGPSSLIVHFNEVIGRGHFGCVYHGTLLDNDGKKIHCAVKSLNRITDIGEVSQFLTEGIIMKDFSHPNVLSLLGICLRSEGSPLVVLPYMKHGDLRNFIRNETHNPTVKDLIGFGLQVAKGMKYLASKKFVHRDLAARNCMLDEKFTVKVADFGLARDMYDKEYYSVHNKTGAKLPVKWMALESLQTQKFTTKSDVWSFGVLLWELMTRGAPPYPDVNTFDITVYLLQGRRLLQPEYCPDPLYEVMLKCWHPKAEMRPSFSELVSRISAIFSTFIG
T16 sequence (Q05397 411-686): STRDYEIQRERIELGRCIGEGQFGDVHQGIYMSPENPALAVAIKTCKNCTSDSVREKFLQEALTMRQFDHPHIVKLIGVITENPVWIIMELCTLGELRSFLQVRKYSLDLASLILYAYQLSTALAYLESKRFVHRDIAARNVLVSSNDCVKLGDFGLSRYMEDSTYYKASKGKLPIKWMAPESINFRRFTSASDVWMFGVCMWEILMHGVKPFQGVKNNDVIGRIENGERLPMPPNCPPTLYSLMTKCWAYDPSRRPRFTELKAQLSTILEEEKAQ

Compound | IC50 [1] | IC50 [2] | IC50 [3] | IC50 [4] | IC50 [5] | IC50 [6] | IC50 [7] | IC50 [8] | IC50 [9] | IC50 [10] | IC50 [11] | IC50 [12] | IC50 [13] | IC50 [14] | IC50 [15] | IC50 [16] | IC50 [17] | IC50 [18] | IC50 [19]
CS(=O)(=O)Nc1ccc(F)c(C(=O)c2c[nH]c3ncc(-c4ccccc4)cc23)c1F [Compound P-0184, N-[2,4-Difluoro-3-(5-phenyl-1H-pyrrolo[2,3-b]pyridine-3-carbonyl)-phenyl]-methanesulfonamide] | ≤ 10 µM | ≤ 10 µM | ≤ 10 µM | ≤ 10 µM | ≤ 10 µM | ≤ 10 µM | ≤ 10 µM | ≤ 10 µM | ≤ 10 µM | ≤ 10 µM | ≤ 10 µM | ≤ 10 µM | ≤ 10 µM |  |  |  |  |  | 
Fc1ccc(-c2ccnc3[nH]cc(Sc4cccs4)c23)cc1 [Compound P-0419] |  |  |  | ≤ 10 µM |  |  |  |  |  |  |  |  |  |  |  | ≤ 10 µM |  |  | 
O=C(c1c(F)ccc(NS(=O)(=O)c2ccccc2)c1F)c1c[nH]c2ncc(-c3cccnc3)cc12 [Compound P-0685, N-[2,4-Difluoro-3-(5-pyridin-3-yl-1H-pyrrolo[2,3-b]pyridine-3-carbonyl)-phenyl]-benzenesulfonamide] | ≤ 10 µM |  | ≤ 10 µM | ≤ 10 µM | ≤ 10 µM |  | ≤ 10 µM | ≤ 10 µM | ≤ 10 µM | ≤ 10 µM | ≤ 10 µM |  | ≤ 10 µM | ≤ 10 µM | ≤ 10 µM |  | ≤ 10 µM | ≤ 10 µM | 
CS(=O)(=O)Nc1ccc(F)c(C(=O)c2c[nH]c3ncc(-c4cccc(C(N)=O)c4)cc23)c1F [Compound P-0721, 3-[3-(2,6-Difluoro-3-methanesulfonylamino-benzoyl)-1H-pyrrolo[2,3-b]pyridin-5-yl]-benzamide] | ≤ 10 µM | ≤ 10 µM | ≤ 10 µM | ≤ 10 µM | ≤ 10 µM |  | ≤ 10 µM | ≤ 10 µM | ≤ 10 µM | ≤ 10 µM | ≤ 10 µM |  | ≤ 10 µM |  |  |  | ≤ 10 µM | ≤ 10 µM | 
CCOc1ccccc1-c1ccnc2[nH]ccc12 [Compound P-1114] |  |  |  | ≤ 10 µM |  |  |  |  |  |  |  |  |  |  |  |  | ≤ 10 µM |  | 
CS(=O)(=O)Nc1cccc(-c2cnc3[nH]cc(C(=O)c4c(F)ccc(OC(F)F)c4F)c3c2)c1 [Compound P-1527, N-{3-[3-(3-Difluoromethoxy-2,6-difluoro-benzoyl)-1H-pyrrolo[2,3-b]pyridin-5-yl]-phenyl}-methanesulfonamide] | ≤ 10 µM |  | ≤ 10 µM | ≤ 10 µM |  |  |  | ≤ 10 µM |  | ≤ 10 µM | ≤ 10 µM |  | ≤ 10 µM |  |  |  |  | ≤ 10 µM | 

Further lines, results first:

IC50 [1] | IC50 [2] | IC50 [3] | IC50 [4] | IC50 [5] | IC50 [6] | IC50 [7] | IC50 [8] | IC50 [9] | IC50 [10] | IC50 [11] | IC50 [12] | IC50 [13] | IC50 [14] | IC50 [15] | IC50 [16] | IC50 [17] | IC50 [18] | IC50 [19] | Compound
≤ 10 µM | ≤ 10 µM | ≤ 10 µM | ≤ 10 µM | ≤ 10 µM | ≤ 10 µM | ≤ 10 µM | ≤ 10 µM | ≤ 10 µM |  |  |  |  |  |  |  |  |  |  | O=C(c1c(F)ccc(O)c1F)c1c[nH]c2ncc(-c3cccnc3)cc12 [Compound P-0066, (2,6-Difluoro-3-hydroxy-phenyl)-(5-pyridin-3-yl-1H-pyrrolo[2,3-b]pyridin-3-yl)-methanone]
≤ 10 µM | ≤ 10 µM | ≤ 10 µM | ≤ 10 µM |  |  | ≤ 10 µM | ≤ 10 µM |  |  | ≤ 10 µM | ≤ 10 µM | ≤ 10 µM | ≤ 10 µM | ≤ 10 µM |  |  |  |  | O=C(Nc1ccc(Cc2c[nH]c3ncccc23)cc1)Nc1ccc(Cl)c(C(F)(F)F)c1 [Compound P-0369]
≤ 10 µM | ≤ 10 µM | ≤ 10 µM | ≤ 10 µM |  |  | ≤ 10 µM |  |  |  | ≤ 10 µM |  |  | ≤ 10 µM |  |  | ≤ 10 µM |  |  | CS(=O)(=O)Nc1ccc(F)c(C(=O)c2c[nH]c3ncccc23)c1F [Compound P-0811]
≤ 10 µM |  |  | ≤ 10 µM |  |  | ≤ 10 µM | ≤ 10 µM |  |  |  |  |  |  |  |  |  |  | ≤ 10 µM | Clc1ccc(Nc2ccnc3[nH]ccc23)cc1Cl [Compound P-0842]
